How the values were obtained:
[1] = biological target: T1, His6-Flag-TEV-NLRP3 (134-1036) (Homo sapiens, UniProt Q96P20); test: NLRP3 fluorescence polarization (FP) binding assay, competition with probe NP3-301; details: competition with NP3-301 for binding to NLRP3 (134-1036), 30 nM protein
T1 construct: fused on or other part: N-terminal His6 tag, Flag tag and TEV cleavage site
Method: This experiment uses fluorescence polarization technology to detect and evaluate the binding assay.
The fluorescent probe used in this assay is the compound NP3-301 in the Journal of Molecular Biology (2021) 433, 167309, which was synthesized with reference to this literature.
His6-Flag-TEV-NLRP3 (134-1036) protein (SEQ NO. 1) was purchased from Kaihuiruizhi Biotech (Shanghai) Co., Ltd. (ChemPartner), and was customed for expression.
Prepare 1× assay buffer: 50 mM Hepes, pH 7.4, 150 mM NaCl, 2.5 mM MgCl2, 0.005% Tween-20, 1 mM TCEP, 100 μM ATP.
First, 2.5 μL of 4× compound solution was added to a black shallow 384-well plate (Greiner, 784076), the shallow well plate was sealed, and centrifuged at 1000 rpm for 1 min; then 2× NLPR3 protein solution (final concentration of 30 nM) was added, the shallow well plate was sealed, centrifuged at 1000 rpm for 1 min, and incubated at room temperature for 60 min. Finally, 2.5 μL of 4× NP3-301 (final concentration of 0.5 nM) was added, the shallow well plate was sealed, centrifuged at 1000 rpm for 1 min, and incubated at room temperature for 30 min. Envision was used to read the fluorescence polarization values of λex=485+20 nm and kem=535+25 nm. GraphPad Prism 9.5.0 was used to analyze the data, and the IC50 value of the competition between the compound and NP3-301 for binding to His6-Flag-TEV-NLRP3 (134-1036) was fitted by four-parameter logistic. The compounds of the present disclosure have good NLRP3 binding activity, and the test results of some representative compounds are shown in Table 1.

[2] = tested on: IL-1β secretion of THP-1 cells; test: Effect of NLRP3 inhibitor on IL-1β secretion of THP-1 cells (AlphaLISA); format: cell-based; details: Homo sapiens; PMA, LPS and Nigericin stimulated THP-1 cells, IL-1β in supernatant; read-out: IC50 (nM), THP-1 cells to detect NLRP3 inhibitors
Method: This experiment used the PerkinElmer AlphaLISA_human_IL1β kit (AL220 C/F). The detection buffer was RPMI-1640+10FBS. AlphaLISA Immunoassay Buffer, AlphaLISA Anti-IL1β Acceptor beads, Streptavidin (SA)-coated Donor beads, and Biotinylated Antibody Anti-IL1β were all included in the kit.
The density of THP1 cells was adjusted to 4×10^5 cells/mL, PMA (final concentration 50 nM) was added, inoculated into 96-well flat-bottom plates at 200 μL/well, and stimulated overnight at 37° C., 5% CO2 (try to <16h). The next day, the supernatant was discarded, and the flat washed twice with DPBS ([…]/time). Then LPS solution (final concentration of 100 ng/ml) was added at 198 μL/well, incubated at 37° C., 5% CO2 for 3h. 1 μL of the corresponding concentration of compounds was added to each well according to the experimental MAP, incubated at 37° C., 5% CO2 for 1 h. 1 μL Nigericin (final concentration of […]) was added to each well, incubated overnight at 5% CO2 (>18h). On the third day, 5 μL of supernatant was taken, diluted 20 times, and the content of IL-Iβ in the supernatant was detected by Human Interleukin 1 beta (IL1β) Kit. Envision was used to read the AlphaLISA test value of Ex=680/[…]. GraphPad Prism 9.5.0 was used to analyze the data, and the IC50 value of the compound for IL-Iβ antagonism was fitted by four-parameter Logistic.

[3] = biological target: T2, hERG ion channel (Homo sapiens, UniProt Q12809); test: hERG ion channel inhibition, manual patch clamp in HEK293 cells; format: cell-based; details: HEK293 cells stably expressing hERG, read-out: hERG(IC50, manupatch)
T2 construct: host or cells: HEK293
Method: This experiment used manual patch clamp electrophysiology to detect the inhibitory effect of compounds on hERG ion channels, and evaluated cardiac safety based on the single concentration inhibition rate or IC50 size of the compounds.
The cells used in this experiment are HEK293 cell lines transfected with hERG cDNA and stably expressing hERG channels (#60187, provided by BPS, P3-P23 generations are used for experimental research). Cells were cultured in a medium containing the following components: MEM medium, 10% (v/v) inactivated fetal bovine serum, 1 mM sodium pyruvate, […] geneticin, 0.1 mM non-essential amino acids, and 100 U penicillin-streptomycin. HEK293 hERG cells were grown in culture flasks containing the above culture medium and cultured in an incubator at 37° C. and 5% CO2. […]
The electrophysiological experiments were performed by a manual patch clamp system (HEKAEPC-10 signal amplifier and digital conversion system, purchased from HEKA Electronics, Germany) to record the whole-cell current. […] After the hERG current recorded in the above steps reaches stability under continuous perfusion of extracellular fluid in the recording tank, different concentrations of the test compound can be perfused until the inhibitory effect of the drug on the hERG current reaches a stable state. […]

[4] = tested on: iodoacetic acid (MIA)-induced SD rat knee osteoarthritis model; test: Iodoacetic acid (MIA)-induced SD rat knee osteoarthritis model; format: in vivo, SD rats; details: 30 mg/kg orally once a day from Day 7 to Day 42
Method: Purpose: Evaluate the efficacy of MCC950 (Positive reference compound) and compound 111 of the present disclosure on iodoacetic acid (MIA)-induced SD rat knee osteoarthritis model.
Experimental materials: Experimental male SD rats, 4 weeks old.
Model induction began after the experimental animals were adapted to the animal environment for 7 days. Day 0, the rats were anesthetized, the hair around the left knee joint was removed, and the skin was disinfected. The left leg was flexed 90° to expose the patellar platform. The depression in the middle of the platform was touched by hand to find the femoral condyle, patella and ligament. The syringe needle was inserted from the bottom of the patella on both sides of the patellar ligament to the direction of the femoral condyle. When a clear sense of empty space was felt, 50 μL of iodoacetic acid solution was injected. Day 7 Grouping was performed according to the width of the knee joint on the induced side. The groups were: normal control group (healthy control without modeling, 5% DMSO+10% Solutol+85% Saline), model blank control group (5% DMSO+10% Solutol+85% Saline), MCC950 30 mg/kg, and compound 111 of the present disclosure 30 mg/kg. Starting from Day 7, the normal control group and the model blank control group were given the solvent (5% DMSO+10% Solutol+85% Saline) orally once a day, and the other groups were given the corresponding compounds orally once a day until the end of the administration on Day 42. The knee joint width and body weight of the rats were measured once on Day 7, 14, 21, 28, 35, and 42.

T1 sequence (Q96P20 134-1036 limits assumed): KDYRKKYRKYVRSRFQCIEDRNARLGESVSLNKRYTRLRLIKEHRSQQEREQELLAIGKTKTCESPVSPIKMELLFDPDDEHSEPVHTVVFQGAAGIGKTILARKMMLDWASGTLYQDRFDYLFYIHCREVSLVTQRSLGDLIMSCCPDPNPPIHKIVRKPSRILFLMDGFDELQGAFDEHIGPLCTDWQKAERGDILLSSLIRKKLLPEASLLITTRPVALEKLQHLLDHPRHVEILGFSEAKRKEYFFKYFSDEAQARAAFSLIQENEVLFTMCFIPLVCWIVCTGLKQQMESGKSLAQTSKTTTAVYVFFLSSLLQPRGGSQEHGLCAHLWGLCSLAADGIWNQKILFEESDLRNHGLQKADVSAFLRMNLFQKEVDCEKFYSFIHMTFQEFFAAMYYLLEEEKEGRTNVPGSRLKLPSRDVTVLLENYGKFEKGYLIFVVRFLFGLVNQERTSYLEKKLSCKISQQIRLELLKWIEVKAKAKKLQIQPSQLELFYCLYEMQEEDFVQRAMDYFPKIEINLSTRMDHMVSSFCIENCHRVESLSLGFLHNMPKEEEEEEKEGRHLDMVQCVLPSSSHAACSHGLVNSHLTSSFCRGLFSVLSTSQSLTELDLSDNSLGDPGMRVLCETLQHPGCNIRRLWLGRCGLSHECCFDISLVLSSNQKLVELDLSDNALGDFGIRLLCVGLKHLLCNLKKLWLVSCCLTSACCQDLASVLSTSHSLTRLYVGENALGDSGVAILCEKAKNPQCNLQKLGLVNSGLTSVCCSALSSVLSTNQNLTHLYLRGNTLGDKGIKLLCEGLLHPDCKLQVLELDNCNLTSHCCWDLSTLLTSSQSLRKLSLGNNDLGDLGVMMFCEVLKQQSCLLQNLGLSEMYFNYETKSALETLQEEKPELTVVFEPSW
T2 sequence (Q12809 whole entry): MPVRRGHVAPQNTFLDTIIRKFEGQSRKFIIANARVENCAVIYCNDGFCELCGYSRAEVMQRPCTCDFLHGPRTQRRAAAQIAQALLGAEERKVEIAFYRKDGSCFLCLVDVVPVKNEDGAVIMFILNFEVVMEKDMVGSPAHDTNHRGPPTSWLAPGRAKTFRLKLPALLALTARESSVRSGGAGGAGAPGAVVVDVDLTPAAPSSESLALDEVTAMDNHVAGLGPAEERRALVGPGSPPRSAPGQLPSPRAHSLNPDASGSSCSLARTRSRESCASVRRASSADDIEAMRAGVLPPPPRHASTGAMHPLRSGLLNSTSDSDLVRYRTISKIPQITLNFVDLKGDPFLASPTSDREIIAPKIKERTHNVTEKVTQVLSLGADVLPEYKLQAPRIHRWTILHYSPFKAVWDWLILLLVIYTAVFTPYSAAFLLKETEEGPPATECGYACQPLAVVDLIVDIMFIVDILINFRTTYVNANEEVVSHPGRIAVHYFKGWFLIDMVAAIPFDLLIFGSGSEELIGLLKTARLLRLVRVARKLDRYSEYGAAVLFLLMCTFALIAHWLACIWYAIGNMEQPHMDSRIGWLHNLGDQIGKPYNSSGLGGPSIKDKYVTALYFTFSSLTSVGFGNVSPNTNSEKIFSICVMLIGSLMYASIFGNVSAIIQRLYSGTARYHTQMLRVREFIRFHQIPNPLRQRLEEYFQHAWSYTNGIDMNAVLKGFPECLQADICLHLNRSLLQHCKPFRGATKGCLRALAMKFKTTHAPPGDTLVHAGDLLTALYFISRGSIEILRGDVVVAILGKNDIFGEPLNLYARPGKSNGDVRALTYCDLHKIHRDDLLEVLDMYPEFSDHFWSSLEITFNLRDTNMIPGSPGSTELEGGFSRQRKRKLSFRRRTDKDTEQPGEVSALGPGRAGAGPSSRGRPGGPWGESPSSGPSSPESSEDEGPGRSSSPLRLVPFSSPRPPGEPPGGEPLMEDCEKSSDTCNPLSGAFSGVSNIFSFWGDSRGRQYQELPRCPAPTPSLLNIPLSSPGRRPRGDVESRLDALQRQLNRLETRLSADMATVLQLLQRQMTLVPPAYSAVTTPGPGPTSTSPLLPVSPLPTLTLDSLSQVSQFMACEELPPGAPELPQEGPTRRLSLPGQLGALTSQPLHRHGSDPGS

Row | IC50 [1] | IC50 [2] | SMILES | IC50 [3] | body weight of the rats [4] | widening of the knee joints (knee joint width) ([4]; compared with model blank control group, 21 days to 42 days after modeling)
1 | ≤ 100 nM | < 50 nM | Cc1cc(C(F)(F)F)cc(O)c1-c1ccc2oc(N3CCS(=O)(=O)CC3)nc2n1 [Compound 384] | > 30000 nM |  | 
2 | ≤ 100 nM | < 50 nM | CCN1CCC[C@H](Nc2nc3nc(-c4c(C)cc(C(F)(F)F)cc4O)cc(C)n3n2)C1 [Compound 462] |  |  | 
3 |  |  | CC(C)(O)c1coc(S(=O)(=O)NC(=O)Nc2c3c(cc4c2CCC4)CCC3)c1 [MCC950] |  | without affecting the body weight of the rats | could significantly inhibit the widening of the knee joints

— patent publication US20260234150A1, “COMPOUND FOR INHIBITING NLRP3, PREPARATION METHOD, AND USE” (DOVETREE MEDICINES UNUS, INC., priority 2023, published 2026)
